In patent publication US20230257480A1, “ENHANCING BLOOD-BRAIN BARRIER DRUG TRANSPORT BY TARGETING ENDOGENOUS REGULATORS” (THE BOARD OF TRUSTEES OF THE LELAND STANFORD JUNIOR …, priority 2019, published 2023):

Test system: brain parenchymal cells
Test: Flow cytometry of brain parenchymal (CD31-/CD45-) cell uptake of tracer after ALPL inhibitor treatment
Format: in vivo, mice
Settings: vs vehicle
Source text: FIG. 12A is a dot plot representation of cell-surface, druggable gene candidates on brain endothelial cells. Genes were plotted by their degree of blood-brain barrier specificity (Daneman et al., PLoS One (2010). doi:10.1371/journal.pone.0013741) and correlation with plasma uptake. Genes were colored by their upregulation (brown) or downregulation (green) with age. FIG. 12B includes representative images of calcified nodules (Alizarin red staining) detected in aged (23 m.o.—bottom panel) but not young (3 m.o.—top panel) mice, recapitulating nodules seen in pericyte-deficient Pdgfbret/ret mice (Keller et al., Nat. Genet. (2013). doi:10.1038/ng.2723) (representative image of n=5 mice per age). FIG. 12C includes representative images of Type I Collagen expression (green) in Lectin^+ vasculature (red) in the cerebral cortex of young (3 m.o.—left panels) and aged (23 m.o.—right panels) mice. Scale bar=40 microns. FIG. 12D includes representative images of ALPL expression (yellow) in AQP4^+ vasculature (purple) in the cerebral cortex of young (3 m.o.—left panels) and aged (23 m.o.—right panels) mice. Scale bar=40 microns. FIG. 12E is a graph illustrating quantification of ALPL expression in the cerebral cortex vasculature of young (3 m.o.) and aged (23 m.o.) mice (n=7, two-sided t-test; mean+/−s.e.m.). FIG. 12F is a schematic diagram illustrating cerebrovascular ALPL inhibition. Aged (22 m.o.) mice were injected intraperitoneally with vehicle or ALPL inhibitor twice a day for three days before intravenous injection of plasma, human holotransferrin, or transferrin receptor antibody. Uptake in the brain endothelium and parenchyma was assessed by flow cytometry and confocal microscopy of the cortex and hippocampus. FIG. 12G includes representative images of ectopic ALPL activity (red) in the cerebral cortex vasculature of aged (22 m.o.) mice treated with ALPL inhibitor (anti-ALPL) or vehicle and in young (3 m.o.) mice. FIG. 12H is a graph illustrating quantification of ALPL activity in the cerebral cortex vasculature of aged (22 m.o.) mice treated with ALPL inhibitor (anti-ALPL) or vehicle and in young (3 m.o.) mice (n=6-9, one-way ANOVA with Tukey's multiple comparisons correction; mean+/−s.e.m.). FIGS. 12I-12L include graphs illustrating flow cytometry quantification of brain parenchymal (CD31−/CD45−) cell uptake of plasma in aged (22 m.o.) mice (FIG. 12I); plasma in young (3 m.o.) mice (FIG. 12J); human holo-transferrin (hu-Tf) in aged (22 m.o.) mice (FIG. 12K); or transferrin receptor antibody (TfR Ab) in aged (22 m.o.) mice (FIG. 12L) after ALPL inhibitor (anti-ALPL) and vehicle treatment, as assessed by the percent (%) of parenchymal cells that are tracer^+ and the relative mean fluorescence intensity (MFI) of tracer^+ parenchymal cells (for plasma, n=4; for hu-Tf, n=5-6; for TfR Ab, n=9, two-sided t-test; mean+/−s.e.m.). Tracer refers to plasma, hu-Tf, or TfR Ab FIG. 12M includes representative images of transferrin receptor antibody (TfR Ab) in the cortical vasculature (red) and parenchymal cells of ALPL inhibitor-treated aged (22 m.o.) mice. Arrowheads indicate TfR Ab^+ NeuN neurons. Scale bar=40 microns (left) and 10 microns (right). Data were replicated in at least 2 independent experiments.
CNS cell isolation adopted previously described methods42,139,140. Briefly, cortices and hippocampi were microdissected, minced, and digested using the Neural Dissociation Kit (Miltenyi). Suspensions were filtered through a 100 μm strainer and myelin removed by centrifugation in 0.9 M sucrose. The remaining myelin-depleted cell suspension was blocked for ten minutes with Fc preblock (CD16/CD32, BD 553141) on ice and stained for 30 minutes with antibodies to distinguish brain endothelial cells (CD31+/CD45−), astrocytes (ACSA-2+), and neurons (NeuN+ or CD90.2/Thy1.2+). For analysis of plasma uptake, at least 1,000 cells of each population of interest were analyzed per sample. […]

## COc1ccc(OC)c(S(=O)(=O)Nc2cnc3ccccc3c2)c1 [ALPL inhibitor, 2,5-Dimethoxy-N-(quinolin-3-yl)benzenesulfonamide]
Aged (22 m.o.) mice, TfR Ab 20 mg/kg i.v.
  parenchymal uptake of transferrin receptor antibody: increased
Aged (22 m.o.) mice, hu-Tf 40 mg/kg i.v.
  parenchymal uptake of human holo-transferrin: increased
Aged mice, parenchymal cells (MFI)
  amount of plasma taken up by participating cells: increased
Aged mice, parenchymal cells
  percentage of plasma+ cells: did not change
Aged mice
  plasma transport across the endothelium to brain parenchymal cells: increased
Young (3 m.o.) mice
  plasma transcytosis across the young BBB to the parenchyma: did not significantly enhance
